Data reported in ChEMBL document CHEMBL1201862, “PubChem BioAssay data set” (2004).
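How tested: cells in 96-well plates exposed to compound for 48 hours at five concentrations. GI50: concentration for 50% inhibition of growth.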 Active and inactive are the calls of the source. Cut-off read from the data, not from the text of the source: active = GI50 up to about 1.1 µM and inactive = higher.

How the values were obtained:
Test in all cases: NCI tumour cell line growth inhibition, 48 h
M14 = test system: M14
HL-60 = test system: HL-60
OVCAR-4 = test system: OVCAR-4
OVCAR-5 = test system: OVCAR-5
SK-MEL-28 = test system: SK-MEL-28
OVCAR-3 = test system: OVCAR-3
SNB-78 = test system: SNB-78
IGROV-1 = test system: IGROV-1
NCI-H460 = test system: NCI-H460
SK-OV-3 = test system: SK-OV-3
Malme-3M = test system: Malme-3M
MOLT-4 = test system: MOLT-4
HCT-15 = test system: HCT-15
DMS-273 = test system: DMS-273
KM-20L2 = test system: KM-20L2
U-251 = test system: U-251
SN12C = test system: SN12C
RXF 393 = test system: RXF 393
HOP-92 = test system: HOP-92
MDA-N = test system: MDA-N

Row | SMILES | GI50 (M14) | GI50 (HL-60) | GI50 (OVCAR-4) | GI50 (OVCAR-5) | GI50 (SK-MEL-28) | GI50 (OVCAR-3) | GI50 (SNB-78) | GI50 (IGROV-1) | GI50 (NCI-H460) | GI50 (SK-OV-3) | GI50 (Malme-3M) | GI50 (MOLT-4) | GI50 (HCT-15) [µM] | GI50 (DMS-273) | GI50 (KM-20L2) | GI50 (U-251) | GI50 (SN12C) | GI50 (RXF 393) | GI50 (HOP-92) | GI50 (MDA-N)
1 | COc1ccc(C(=O)C(CO)Oc2ccccc2OC)cc1OC (configuration not stated) | > 100 µM (inactive) | > 100 µM (inactive) | > 100 µM (inactive) | > 100 µM (inactive) | > 100 µM (inactive) | > 100 µM (inactive) | > 100 µM (inactive) | > 100 µM (inactive) | > 100 µM (inactive) | > 100 µM (inactive) | > 100 µM (inactive) | > 100 µM (inactive) | > 100 | > 100 µM (inactive) | > 100 µM (inactive) | > 100 µM (inactive) | > 100 µM (inactive) |  |  | 
2 | O=S1(=O)[C@H](c2ccccc2)c2c(-c3ccccc3)sc(-c3ccccc3)c2[C@@H]1c1ccccc1 | > 100 µM (inactive) | > 100 µM (inactive) | 48.1 µM (inactive) | 3.81 µM (inactive) | > 100 µM (inactive) | > 100 µM (inactive) |  | > 100 µM (inactive) | > 100 µM (inactive) | > 100 µM (inactive) | 94.2 µM (inactive) | > 100 µM (inactive) | > 100 | > 100 µM (inactive) | > 100 µM (inactive) | > 100 µM (inactive) | > 100 µM (inactive) | 39.8 µM (inactive) | 27 µM (inactive) | 
3 | O=C(Nc1ccc(Cl)cc1)c1cc([N+](=O)[O-])ccc1O | 3.65 µM (inactive) | 2.19 µM (inactive) | 4.52 µM (inactive) | 4.53 µM (inactive) | 3.33 µM (inactive) | 2.67 µM (inactive) |  | 3.27 µM (inactive) | 3.01 µM (inactive) | 4.69 µM (inactive) | 2.13 µM (inactive) | 2.58 µM (inactive) | 6.79 | 5.55 µM (inactive) | 4.49 µM (inactive) | 3.27 µM (inactive) | 4.07 µM (inactive) | 1.77 µM (inactive) |  | 
4 | CC(C)(C)c1cc(C#N)c2c(c1)C(=O)OC2(c1ccccc1)c1ccccc1C#N (configuration not stated) | > 100 µM (inactive) | 7.38 µM (inactive) | > 100 µM (inactive) | > 100 µM (inactive) | > 100 µM (inactive) | 94.6 µM (inactive) | > 100 µM (inactive) | > 100 µM (inactive) | > 100 µM (inactive) | > 100 µM (inactive) | > 100 µM (inactive) | 23.8 µM (inactive) | 29.5 | > 100 µM (inactive) | > 100 µM (inactive) | > 100 µM (inactive) | > 100 µM (inactive) | > 100 µM (inactive) |  | 
5 | N=C(N)N/N=C/c1oc(-c2ccc(S(=O)(=O)O)o2)c(-c2ccc(S(=O)(=O)O)o2)c1[N+](=O)[O-] | > 100 µM (inactive) | > 100 µM (inactive) | > 100 µM (inactive) | > 100 µM (inactive) | > 100 µM (inactive) | > 100 µM (inactive) |  | > 100 µM (inactive) | > 100 µM (inactive) | > 100 µM (inactive) | > 100 µM (inactive) | > 100 µM (inactive) | > 100 | > 100 µM (inactive) | > 100 µM (inactive) | > 100 µM (inactive) | > 100 µM (inactive) | > 100 µM (inactive) | > 100 µM (inactive) | 
6 | C/C(=C\CBr)CCC(Br)C(C)(C)Cl (configuration not stated) | > 100 µM (inactive) |  | > 100 µM (inactive) | > 100 µM (inactive) | > 100 µM (inactive) |  | > 100 µM (inactive) | > 100 µM (inactive) | > 100 µM (inactive) | > 100 µM (inactive) | > 100 µM (inactive) | > 100 µM (inactive) | > 100 | > 100 µM (inactive) |  | > 100 µM (inactive) | > 100 µM (inactive) | > 100 µM (inactive) | > 100 µM (inactive) | 
7 | C=C1C(=O)OC2CCCCC3OC3C12 (configuration not stated) | 7.16 µM (inactive) | 2.79 µM (inactive) | 14.2 µM (inactive) | 18.2 µM (inactive) | 10.9 µM (inactive) | 13.4 µM (inactive) | 19.4 µM (inactive) | 17.1 µM (inactive) | 14.8 µM (inactive) | 16.5 µM (inactive) | 10.7 µM (inactive) | 13.1 µM (inactive) | 6.9 | 10.3 µM (inactive) | 10.1 µM (inactive) | 10.7 µM (inactive) | 7.62 µM (inactive) | 13.4 µM (inactive) |  | 
8 | O=C(NC1CCCCC1)c1c(O)[nH]c(=S)[nH]c1=O | > 100 µM (inactive) |  | > 100 µM (inactive) | > 100 µM (inactive) | > 100 µM (inactive) | > 100 µM (inactive) | 99.1 µM (inactive) | > 100 µM (inactive) | 57 µM (inactive) | > 100 µM (inactive) | > 100 µM (inactive) | > 100 µM (inactive) | > 100 |  | > 100 µM (inactive) | 88.5 µM (inactive) | > 100 µM (inactive) |  | 96.8 µM (inactive) | 
9 | COc1cc(C(=O)C/C(CCC(=O)Nc2ccc(Cl)cc2C)=N/NC(=O)C(N)=O)ccc1O | > 100 µM (inactive) | > 100 µM (inactive) | > 100 µM (inactive) | > 100 µM (inactive) |  | > 100 µM (inactive) | > 100 µM (inactive) | > 100 µM (inactive) | > 100 µM (inactive) | 65.3 µM (inactive) | > 100 µM (inactive) | > 100 µM (inactive) | > 100 | > 100 µM (inactive) | > 100 µM (inactive) | > 100 µM (inactive) | > 100 µM (inactive) |  | > 100 µM (inactive) | 
10 | Cc1cc(NC(=O)NC(=O)c2ccccc2N)ccc1Oc1ncc(Br)cn1 | 0.0117 µM (active) | < 0.01 µM (active) | 4.78 µM (inactive) | 0.0396 µM (active) | < 0.01 µM (active) | < 0.01 µM (active) |  | < 0.011 µM (active) | < 0.0112 µM (active) | 0.0103 µM (active) | < 0.01 µM (active) | < 0.0135 µM (active) | < 0.0107 | < 0.0316 µM (active) | 0.016 µM (active) | 0.0141 µM (active) | 0.0583 µM (active) | 0.0244 µM (active) | 0.0159 µM (active) | < 10 nM (active)
11 | COc1cc(OC(C)=O)cc2c(OC(C)=O)ccc(OC(C)=O)c12 | > 100 µM (inactive) | 43.6 µM (inactive) | 73.6 µM (inactive) | > 100 µM (inactive) | > 100 µM (inactive) | > 100 µM (inactive) | > 100 µM (inactive) | > 100 µM (inactive) | > 100 µM (inactive) |  |  | > 100 µM (inactive) | > 100 |  | > 100 µM (inactive) | > 100 µM (inactive) | > 100 µM (inactive) | > 100 µM (inactive) | 17.1 µM (inactive) | 
12 | CCCCn1c(-c2ccccc2)cs/c1=N\NC(=O)Cn1c(C)nc2ccccc21 | 53.2 µM (inactive) | 14.4 µM (inactive) | 6.12 µM (inactive) | > 100 µM (inactive) |  | 40.6 µM (inactive) | > 100 µM (inactive) | > 100 µM (inactive) | 76.7 µM (inactive) | > 100 µM (inactive) | 35.7 µM (inactive) | 16.3 µM (inactive) | 97.9 | 76 µM (inactive) | 84.9 µM (inactive) | 96.2 µM (inactive) | 19.8 µM (inactive) | 34.3 µM (inactive) |  | 
13 | O=C(CSC(=S)N1CCCCC1)Nc1nc2c(s1)CCCC2 | 66.5 µM (inactive) | 12.1 µM (inactive) | 91.8 µM (inactive) | > 100 µM (inactive) | 64.7 µM (inactive) |  | > 100 µM (inactive) | > 100 µM (inactive) | 15.1 µM (inactive) | > 100 µM (inactive) | > 100 µM (inactive) | 11 µM (inactive) | 8.73 | 49.4 µM (inactive) | 46 µM (inactive) | 29.2 µM (inactive) | 31.3 µM (inactive) |  | 39.1 µM (inactive) | 
14 | COc1ccc(-c2oc(/C=N/NC(N)=S)c([N+](=O)[O-])c2-c2ccc(OC)c(OC)c2)cc1OC | 20.7 µM (inactive) | 21.7 µM (inactive) | 21.7 µM (inactive) | 48.3 µM (inactive) | 23.9 µM (inactive) | 16.7 µM (inactive) |  | 28.3 µM (inactive) |  | 21 µM (inactive) | 17.3 µM (inactive) |  | 29.4 |  | 18.2 µM (inactive) |  | 36 µM (inactive) | 13.2 µM (inactive) | 24.2 µM (inactive) | 
15 | COC(=O)CC1CCN(C#N)CC1CC[N+](=O)[O-] (configuration not stated) | > 100 µM (inactive) | > 100 µM (inactive) | > 100 µM (inactive) |  | > 100 µM (inactive) | > 100 µM (inactive) | > 100 µM (inactive) | > 100 µM (inactive) | > 100 µM (inactive) | > 100 µM (inactive) | > 100 µM (inactive) | > 100 µM (inactive) | > 100 | > 100 µM (inactive) | > 100 µM (inactive) | > 100 µM (inactive) | > 100 µM (inactive) | > 100 µM (inactive) |  | 
16 | C=C(C)C12CC3CC(/C(=N/O)C(C1)/C3=N\O)[C@@]2(C)O (some centres not stated) | > 100 µM (inactive) | > 100 µM (inactive) |  | > 100 µM (inactive) | > 100 µM (inactive) | > 100 µM (inactive) | > 100 µM (inactive) | > 100 µM (inactive) | > 100 µM (inactive) | > 100 µM (inactive) | > 100 µM (inactive) | > 100 µM (inactive) | > 100 | > 100 µM (inactive) | > 100 µM (inactive) | > 100 µM (inactive) | > 100 µM (inactive) | > 100 µM (inactive) |  | 
